# Literature values, collected in US5681568A, “Device for delivery of substances and methods of use thereof” (Cambridge NeuroScience, Inc., priority 1994, dated 1997).
# Columns and labels:
# [1] = system: experimental cerebral ischemia; details: after experimental cerebral ischemia, rabbit
# [2] = system: hypoxic/ischemic brain injury; details: rat
# [3] = presence of heparin
# nerve regeneration = details: in vivo
# [4] = in vivo
compound,measurement,setting,value
TGFβ1: Transforming growth factor β1,effect on infarct size,[1],reduce infarct size
same,effects in models of hypoxic/ischemic brain injury,[2],therapeutically relevant effects
IGF-1: insulin-like growth factors (IGFs),effects in models of hypoxic/ischemic brain injury,[2],therapeutically relevant effects
acidic FGF: member of the fibroblast growth factor (FGF) family known to associate with heparin,effect of heparin on the factor's activity,[3],can potentiate the factor's activity
bFGF: Basic fibroblast growth factor,effect on nerve regeneration,nerve regeneration,therapeutic relevant effect on nerve regeneration
CSCC[C@@H]1NC(=O)[C@H](CC(C)C)NC(=O)[C@H](CCCNC(=N)N)NC(=O)[C@H](CO)NC(=O)[C@@H]2CSSC[C@@H]3NC(=O)[C@H](CO)NC(=O)CNC(=O)[C@H]([C@@H](C)O)NC(=O)[C@H](CSSC[C@H](N)C(=O)N[C@@H](CCCCN)C(=O)NCC(=O)N[C@@H](CCCCN)C(=O)NCC(=O)N[C@@H](C)C(=O)N[C@@H](CCCCN)C(=O)N2)NC(=O)[C@H](CSSC[C@@H](C(N)=O)NC(=O)[C@H](CCCCN)NC(=O)CNC(=O)[C@H](CO)NC(=O)[C@H](CCCNC(=N)N)NC3=O)NC(=O)[C@H](CC(=O)O)NC(=O)[C@H](Cc2ccc(O)cc2)NC1=O [SNX111],toxic side effects,[4],severe hypotension
